Reference: paper PMC6627609, “Targeting Quorum Sensing: High-Throughput Screening to Identify Novel LsrK Inhibitors” (International Journal of Molecular Sciences, 2019)
Counter-ions that a name gives are not always drawn.

Biological target: LsrK (Salmonella typhimurium, UniProt Q8ZKQ6)
Test: biochemical
Format: biochemical, S. typhimurium
Conditions: for Inhibition (%): 50 µM

Sequence of LsrK (Q8ZKQ6 whole entry): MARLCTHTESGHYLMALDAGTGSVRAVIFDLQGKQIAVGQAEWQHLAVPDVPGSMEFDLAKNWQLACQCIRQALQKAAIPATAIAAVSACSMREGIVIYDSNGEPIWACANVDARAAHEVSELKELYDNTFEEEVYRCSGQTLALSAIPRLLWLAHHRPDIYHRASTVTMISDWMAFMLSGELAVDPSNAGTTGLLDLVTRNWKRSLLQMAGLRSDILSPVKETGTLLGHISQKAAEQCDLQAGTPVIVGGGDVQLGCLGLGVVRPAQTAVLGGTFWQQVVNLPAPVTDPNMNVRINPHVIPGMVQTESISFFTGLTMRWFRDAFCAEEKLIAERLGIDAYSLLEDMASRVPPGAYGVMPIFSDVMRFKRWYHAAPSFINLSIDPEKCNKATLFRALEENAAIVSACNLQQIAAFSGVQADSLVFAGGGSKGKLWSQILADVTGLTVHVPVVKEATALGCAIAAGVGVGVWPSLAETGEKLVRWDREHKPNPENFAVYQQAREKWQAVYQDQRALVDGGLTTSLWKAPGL

For CC1(C)O[C@@H]2C[C@H]3[C@@H]4CCC5=CC(=O)C=C[C@]5(C)[C@H]4[C@@H](O)C[C@]3(C)[C@]2(C(=O)CO)O1 [DESONIDE], the inhibition at 50 µM was 0%.
In the case of CC[C@H](CC[C@@H](C)[C@H]1CC[C@H]2[C@@H]3CC[C@H]4C[C@@H](O)CC[C@]4(C)[C@H]3CC[C@]12C)C(C)C [FUCOSTANOL], the “Inhibition (%)” value is reported as 1.
For O=C(O)c1cc(-c2ccccc2)nc2ccccc12 [CINCHOPHEN], the inhibition at 50 µM was 6%.
For Cc1cccc2c3c(ccc12)C1=C(C(=O)C3=O)[C@@H](C)CO1 [DIHYDROTANSHINONE I], the inhibition at 50 µM was 115%.
OC[C@H]1O[C@@](CO)(O[C@H]2O[C@H](CO)[C@@H](O)[C@H](O)[C@H]2O)[C@@H](O[C@H]2O[C@H](CO)[C@@H](O)[C@H](O)[C@H]2O)[C@@H]1O [MELEZITOSE] was tested, and the inhibition at 50 µM was 2%.
Work on Cc1nnc(SCC2=C(C(=O)O)N3C(=O)[C@@H](NC(=O)Cn4cnnn4)[C@H]3SC2)s1 [CEFAZOLIN SODIUM] yielded an inhibition at 50 µM of 1%.
O=c1cc(-c2ccccc2)oc2c(O)c(O)ccc12 [7.8-DIHYDROXYFLAVONE] was tested, and the “Inhibition (%)” value was 5.
Compound CCC1(C)CC(=O)NC1=O (stereo not shown) [ETHOSUXIMIDE] has an inhibition at 50 µM of 17%.
In the case of CCOc1cccc(C(=O)c2ccc(O)c(O)c2O)c1, the “Inhibition (%)” value is reported as 11.
For COc1cc2c(cc1-c1cc3cc4ccoc4cc3oc1=O)OCO2 [PACHYRRHIZIN], the “Inhibition (%)” value was 1.
With C[N+](C)(C)CCCCCCCCCC[N+](C)(C)C [DECAMETHONIUM BROMIDE] the inhibition at 50 µM was 0%.
In the case of O=C(O)CCc1nc(-c2ccccc2)c(-c2ccccc2)o1 [OXAPROZIN], the inhibition at 50 µM is reported as 13%.
Compound CCC[C@H](N[C@@H](C)C(=O)N1[C@H](C(=O)O)C[C@@H]2CCCC[C@@H]21)C(=O)OCC [PERINDOPRIL ERBUMINE] has an inhibition at 50 µM of 15%.
For Cc1c[nH]c2ccccc12 [SKATOLE], the “Inhibition (%)” value was 1.
In the case of O=c1c(O)cccc2cc(O)c(O)c(O)c12 [PURPUROGALLIN], the inhibition at 50 µM is reported as 89%.
OCC(S)CS (stereo not shown) [DIMERCAPROL] was tested, and the inhibition at 50 µM was 125%.
In the case of C/C=C(\C)C(=O)O[C@H]1[C@H](OC(C)=O)[C@@]2(CO)C(CC1(C)C)C1=CC[C@@H]3[C@@]4(C)CC[C@H](O[C@@H]5O[C@H](C(=O)O)[C@@H](O[C@@H]6O[C@H](CO)[C@@H](O)[C@H](O)[C@H]6O)[C@H](O)[C@H]5O[C@@H]5O[C@H](CO)[C@@H](O)[C@H](O)[C@H]5O)[C@H](CO)C4CC[C@@]3(C)[C@@]1(C)C[C@H]2O (stereo partly drawn) [beta-ESCIN], the inhibition at 50 µM is reported as 129%.
O.O=C(O)[C@@H]1[C@H]2C[C@H]3c4[nH]c5ccccc5c4CCN3C[C@@H]2CC[C@@H]1O [YOHIMBIC ACID HYDRATE] was tested, and the “Inhibition (%)” value was 1.
With NC(=O)c1cc([N+](=O)[O-])cc([N+](=O)[O-])c1 [NITROMIDE] the “Inhibition (%)” value was 1.
Compound COc1ccc2c(C)cc(=O)oc2c1 [H[…] ETHER] has an inhibition at 50 µM of 0%.
Cc1ncc(CSSCc2cnc(C)c(O)c2CO)c(CO)c1O [PYRITINOL] was tested, and the inhibition at 50 µM was 1%.
CCCC(CCC)C(=O)O [VALPROATE SODIUM] gave an inhibition at 50 µM of 0%.
Compound CC(C)c1ccc2c(c1)CC[C@H]1[C@](C)(C(N)=O)CCC[C@]21C [DEHYDROABIETAMIDE] has an inhibition at 50 µM of 2%.
COC(=O)C1=C(C)NC(C)=C(C(=O)OC)C1c1ccccc1[N+](=O)[O-] [NIFEDIPINE] showed an inhibition at 50 µM of 98%.
COc1cc(C(C)=O)cc(OC)c1O [ACETOSYRINGONE] showed an inhibition at 50 µM of 8%.
Work on COc1ccc2c(c1)CC[C@@H]1[C@@H]2CC[C@]2(C)[C@@H](O)CC[C@@H]12 [ESTRADIOL METHYL ETHER] yielded an inhibition at 50 µM of 3%.
Work on C=C1[C@H]2CC[C@@]3(C)[C@H](c4ccoc4)OC(=O)C[C@]13O[C@H]1C[C@H](O)C(C)(C)[C@H](CC(=O)OC)[C@]12C [3-DEOXY-3beta-HYDROXY[…] METHYL ESTER] yielded an inhibition at 50 µM of 1%.
O=c1c(O)c(-c2ccccc2)oc2cc(O)ccc12 [3.7-DIHYDROXYFLAVONE] was tested, and the “Inhibition (%)” value was 0.
For Nc1ccc(C(=O)NCC(=O)O)cc1 [AMINOHIPPURIC ACID], the inhibition at 50 µM was 1%.
O=C(O)[C@]1(O)C[C@@H](O)[C@@H](O)[C@H](O)C1 [QUINIC ACID] gave an inhibition at 50 µM of 0%.
Cc1cccc(Nc2ccccc2C(=O)O)c1C [MEFENAMIC ACID] gave an inhibition at 50 µM of 1%.
NC[C@H](O)c1ccc(O)c(O)c1 [NOREPINEPHRINE, reference compound] gave an IC50 of 30 µM and an inhibition at 50 µM of 74%.
With “TEICOPLANIN [TEICOPLANIN [A(2-1) shown]]” the “Inhibition (%)” value was 148%.
Work on COC1=CC(=O)O[C@@H](/C=C/c2ccccc2)C1 [KAWAIN] yielded an inhibition at 50 µM of 0%.
O=C(O)c1ccc2c(c1)OCO2 [PIPERONYLIC ACID] showed an inhibition at 50 µM of 1%.
Work on NC[C@@H]1O[C@H](O[C@H]2[C@@H](O)[C@H](O[C@@H]3[C@@H](O)[C@H](N)C[C@H](N)[C@H]3O[C@H]3O[C@H](CO)[C@@H](O)[C@H](O)[C@H]3N)O[C@@H]2CO)[C@H](N)[C@@H](O)[C@@H]1O [PAROMOMYCIN SULFATE] yielded an inhibition at 50 µM of 3%.
COC1=CC(=O)C=C(OC)C1=O [2.6-DIMETHOXYQUINONE] was tested, and the “Inhibition (%)” value was 50.
C=C1C(=O)O[C@H]2[C@H]1CC/C(C)=C/CC[C@@]1(C)O[C@@H]21 [PARTHENOLIDE] showed an inhibition at 50 µM of 3%.
For CC(=O)c1c(O)cc(O)cc1O [PHLORACETOPHENONE], the “Inhibition (%)” value was 1.
With Cn1cnc2c1c(=O)[nH]c(=O)n2C [THEOBROMINE] the inhibition at 50 µM was 0%.
CC(=O)N[C@@H](Cc1c[nH]c2ccccc12)C(N)=O [ACETYLTRYPTOPHANAMIDE] showed an inhibition at 50 µM of 1%.
Compound CCCCC1C(=O)N(c2ccccc2)N(c2ccc(O)cc2)C1=O (stereo not shown) [OXYPHENBUTAZONE] has an inhibition at 50 µM of 93%.
NCCCNCCSP(=O)(O)O [AMIFOSTINE] showed an inhibition at 50 µM of 3%.
Oc1ccc2c(c1)OC[C@]1(O)Cc3cc(O)c(O)cc3[C@H]21 [BRAZILIN] gave an inhibition at 50 µM of 133%.
For CCCCOc1cc(CC2CNC(=O)N2)ccc1OC (stereo not shown) [4-(3-BUTOXY-4-METHOXYBENZYL)IMIDAZOLIDIN-2-ONE], the “Inhibition (%)” value was 1.
CC(=O)N[C@@H](CC(C)C)C(=O)O [ACETYL-L-LEUCINE] showed an inhibition at 50 µM of 0%.
O=C1C=CC(=O)c2c(O)cccc21 [JUGLONE] gave an inhibition at 50 µM of 88%.
Compound C[C@]12CC[C@H](O)C[C@H]1CC[C@@H]1[C@@H]2C[C@@H](O)[C@]2(C)[C@@H](C3=CC(=O)OC3)CC[C@]12O [DIGOXIGENIN] has an inhibition at 50 µM of 2%.
With NCCc1cc(O)c(O)cc1O [OXIDOPAMINE HYDROCHLORIDE] the inhibition at 50 µM was 117%.
In the case of CC(=O)OCC(=O)[C@@]1(O)CC[C@H]2[C@@H]3CCC4=CC(=O)C=C[C@]4(C)[C@H]3[C@@H](O)C[C@@]21C [PREDNISOLONE ACETATE], the inhibition at 50 µM is reported as 0%.
Oc1cc(Cl)ccc1Oc1ccc(Cl)cc1Cl [TRICLOSAN] was tested, and the inhibition at 50 µM was 2%.
Work on CN(C)CCC(c1ccccc1)c1ccccn1 (stereo not shown) [PHENIRAMINE MALEATE] yielded an inhibition at 50 µM of 3%.
With COC(=O)c1cc(O)c(=O)c2c(O)c(O)ccc2c1 [METHYL 7-DESHYDROXYPYROGALLIN-4-CARBOXYLATE] the inhibition at 50 µM was 112%.
For O=c1cccc2n1C[C@@H]1CNC[C@H]2C1 [CYTISINE], the inhibition at 50 µM was 3%.
Work on CC[C@@]1(O)C(=O)OCc2c1cc1n(c2=O)Cc2cc3c(CN(C)C)c(O)ccc3nc2-1 [TOPOTECAN HYDROCHLORIDE] yielded an inhibition at 50 µM of 0%.
With Cl.c1ccc(C2CN3CCSC3=N2)cc1 (stereo not shown) [TETRAMIZOLE HYDROCHLORIDE] the “Inhibition (%)” value was 22.
Work on Cn1nnnc1SCC1=C(C(=O)O)N2C(=O)[C@@H](NC(=O)[C@H](OC=O)c3ccccc3)[C@H]2SC1 [CEFAMANDOLE NAFATE] yielded an inhibition at 50 µM of 1%.
With COC(=O)C[C@H]1C(C)(C)[C@@H](O)[C@@H]2CC3=C4C=C(OC)O[C@@H](c5ccoc5)[C@]4(C)CCC3[C@@]1(C)C2=O (stereo partly drawn) [3-DEOXO-3beta-HYDROXYMEXICANOLIDE 16-ENOL ETHER] the inhibition at 50 µM was 2%.
With C[C@]12CCC(=O)C=C1C=C[C@@H]1[C@@H]2CC[C@@]2(C)[C@H]1CC[C@@]2(O)CCC(=O)[O-].[K+] [CANRENOIC ACID. POTASSIUM SALT] the “Inhibition (%)” value was 0.
COC(=O)C[C@H]1C2(C)CC34OC5(C)O[C@@]6([C@H](OC)C(OC(=O)C(C)C)[C@]7(C)C(/C(=C(/OC)C(C)C)C(=O)O[C@H]7c7ccoc7)[C@@]6(O5)[C@H](OC)[C@@]3(OC)C2OC(C)=O)[C@]14C (stereo partly shown) [CHUKRASIN METHYL ETHER] gave an inhibition at 50 µM of 1%.
For O=c1cc(-c2ccc(O)cc2)oc2ccc(O)cc12 [6.4'-DIHYDROXYFLAVONE], the “Inhibition (%)” value was 0.
In the case of CC(N)C(=O)OC(C)(C)Cc1ccc(Cl)cc1 (stereo not shown) [ALAPROCLATE], the inhibition at 50 µM is reported as 1%.
For CC(=O)N(c1onc(C)c1C)S(=O)(=O)c1ccc(N)cc1 [SULFISOXAZOLE ACETYL], the inhibition at 50 µM was 4%.
C[C@H]1C(=O)O[C@@H]2CCN3CC=C(COC(=O)[C@](C)(O)[C@]1(C)O)[C@H]23 [MONOCROTALINE] was tested, and the inhibition at 50 µM was 111%.
With CCCCN1CCCCC1C(=O)Nc1c(C)cccc1C (stereo not shown) [BUPIVACAINE HYDROCHLORIDE] the inhibition at 50 µM was 2%.
O=C(Nc1ccc([N+](=O)[O-])cc1Cl)c1cc(Cl)ccc1O [NICLOSAMIDE] gave an inhibition at 50 µM of 0%.
With CCCC(=O)Nc1ccc(OCC(O)CNC(C)C)c(C(C)=O)c1 (stereo not shown) [ACEBUTOLOL HYDROCHLORIDE] the inhibition at 50 µM was 0%.
Work on O=C(O)/C=C/C=C/c1ccccc1 [JUAREZIC ACID] yielded an inhibition at 50 µM of 1%.
C[C@H](CCC(=O)NCC(=O)O)[C@H]1CC[C@H]2[C@@H]3[C@H](O)C[C@@H]4C[C@H](O)CC[C@]4(C)[C@H]3C[C@H](O)[C@]12C [GLYCOCHOLIC ACID] was tested, and the inhibition at 50 µM was 1%.
With Cc1cccc(C)c1NC(=O)C1CCCCN1C (stereo not shown) [MEPIVACAINE HYDROCHLORIDE] the inhibition at 50 µM was 15%.
In the case of CCOc1ccc(C(=O)c2ccc(OC)c(O)c2O)cc1 [2.3-DIHYDROXY-4-METHOXY-4'-ETHOXYBENZOPHENONE], the “Inhibition (%)” value is reported as 16.
For CC12CCC(CC1)C(C)(C)O2 [CINEOLE], the inhibition at 50 µM was 1%.
COc1cc(C)c2c(c1C=O)Oc1c(c(C)c(O)c3c1C(O)OC3=O)OC2=O (stereo not shown) [STICTIC ACID] was tested, and the IC50 was 3 µM and the inhibition at 50 µM was 119%.
O=C(O)CCCCCCCC(O)C(O)CCCCCCO (stereo not shown) [ALEURETIC ACID] was tested, and the “Inhibition (%)” value was 0.
CC(CN(C)C)CN1c2ccccc2CCc2ccccc21 (stereo not shown) [TRIMIPRAMINE MALEATE] showed an inhibition at 50 µM of 111%.
For COCC1=C(C(=O)OC(C)OC(=O)OC(C)C)N2C(=O)[C@@H](NC(=O)/C(=N\OC)c3csc(N)n3)[C@H]2SC1 (stereo partly shown) [CEFPODOXIME PROXETIL], the inhibition at 50 µM was 24%.
Compound Cc1nccc2c1[nH]c1cc(O)ccc12 [HARMOL HYDROCHLORIDE] has an inhibition at 50 µM of 3%.
